# Experiments:
# pseudocholinesterase = molecular target: T1, pseudocholinesterase (Homo sapiens, UniProt P06276); conditions: plasma; cited from earlier work
# T1 construct: hydrolyzed at the ester linkage in plasma by pseudocholinesterase; host or cells: plasma
# hTCEpi cells = experiment: Cytotoxicity, Alamar Blue cell viability assay; format: cell-based, human; conditions: 24 or 48 hours incubation
# Experimental: Cytotoxicity studies were performed using Human telomerase-immortalized human corneal epithelial cells (hTCEpi cells—obtained through Genon Corp., Menlo Park, CA, USA). The cells were plated at a density of 30,000 cells per well of a 96-well dish in growth media (Defined Keratinocyte Media with growth supplement, Invitrogen, Grand Island, NY, USA). After 24 hours of recovery, cells were treated with either growth media alone or growth media supplemented with 0.5% DMSO (vehicle), the indicated concentration of ATIP, or 0.5% proparacaine (Akorn, Forest Lake, IL). Cells were incubated for 24 or 48 hours at 37° C. in 5% CO2. Cell viability was assessed using an Alamar Blue Assay (Thermo Fisher, Waltham, MA, USA).
# With reference to FIGS. 5A and 5B, data are plotted as the fraction of viable cells compared to growth media alone+/−S.E.M (n=3).
# [1] = system: injury-sensitized dissociated rat sensory neurons; experiment: Patch-clamp electrophysiology, action potentials induced by depolarizing current; format: cell-based
# Experimental: Studies were conducted to examine the effect of Atip administration on action potentials induced by depolarizing current. Electrophysiology in injury-sensitized dissociated rat sensory neurons was recorded with patch-clamp, using methods previously described (5).
# [2] = system: motor axons (Ventral Root); experiment: Compound action potential (CAP) conduction block, motor CAP recorded at ventral root, drug applied to lumbar plexus exposure; format: in vivo, rats; conditions: Atip applied to the nerve; FIGS. 2A-3B together
# Source text: (§1) A surgical preparation was used to determine whether Atip acts differently on sensory or motor neurons. The procedures used were similar to those described in Petruska et al., 1998 (Experimental Brain Research 121:379-390). Briefly, adult rats received general anesthesia with ketamine/xylazine. The jugular vein, carotid artery, and trachea were intubated for the purposes of administering supplementary anesthesia, monitoring of blood pressure, and measuring end-expired CO2, respectively. Normal body temperature was maintained within 1° C. via a water-based thermal blanket. […]
# (§2) Compound action potentials (CAPs) were generated by stimulating the sciatic nerve branches. The CAPs propagated centrally through the lumbar plexus to the dorsal and ventral roots where the sensory and motor CAPs (sCAP and mCAP) were detected with the recording electrodes. Effectiveness of conduction block was assessed by measuring the properties of the CAPs (peak and area) conducted through the lumbar plexus exposure and treated with drug compared to the CAPs in the control condition (vehicle or saline in the lumbar plexus exposure).
# (§3) With reference to FIG. 2B, activity in response to electrical stimulation of the peroneal nerve was recorded from sensory and motor fascicles (20-30 sweeps averaged per time point). […]
# small sensory axons = experiment: Nociceptive cutaneous trunk muscle reflex (CTMR) EMG on electrical stimulation of a treated sensory nerve; format: in vivo, rats; conditions: sensory nerve treated with Atip 20 ul, 200 uM
# Experimental: To address this, a different model system was used the cutaneous trunk muscle reflex (CTMR), which was previously developed and validated for use in anesthesiology and pain experimentation (4,5).
# With reference to FIG. 3B, the effects of Atip on nociceptor sensory conduction are assessed using nociceptive CTM reflex as readout.
# The CTMR in rats appears as a puckering or flicking of the back skin and is elicited only by noxious natural stimulation or by electrical stimulation of sufficient strength to recruit A-delta and C-fibers (4,6,7). Activation of only very few of these sensory axons is sufficient to elicit a CTMR, making the system a “natural amplifier” for small-diameter afferent input and resulting in reflex output detectible at the EMG and behavioral level (4,8).
# [3] = system: sensory axons (Dorsal Root); experiment: Compound action potential (CAP) conduction block, sensory CAP recorded at dorsal root, drug applied to lumbar plexus exposure; format: in vivo, rats
# Source text: as §1, §2, §3
# [4] = system: isolated human DRG Neurons; experiment: Live cell calcium imaging with electric field stimulation; format: cell-based
# Experimental: Live cell calcium imaging studies were conducted on isolated human DRG Neurons from post mortem donors. Cells were loaded with 3 uM Fluo 8-AM (AAT Bioquest 21081) containing 0.1% Pluronic F-127 (Sigma P2443) for 20 min. The extracellular solution contained in mM (Sigma): 145 NaCl (S3014), 3 KCl (P3911), 2 CaCl2) (C3881), 1 MgCl2 (M9272), 10 HEPES (H3375), 10 glucose (G5767) adjusted to pH 7.4 with NaOH (72068). Fluo-8-loaded cells were excited at 480 nm and emission was collected at 520 nm with a pcoEDGE sCMOS camera (PCO) mounted on an inverted microscope (Olympus IX71).
# For Electric Field stimulation (EFs), images were acquired at 100 Hz for 2.5 sec applying simultaneously a train of 10 pulses (5 Hz, 10 ms). After the recording of the baseline profile at Low (1.5 to 2.0 V) and High (2.5 to 3.0 V) Voltage, a pre incubation of […] of the inhibitor is applied to the well before repeating the EFs procedure (Atip 100 uM, Atip 300 uM, Lidocaine 200 uM (Sigma L7757)). The cells that had less than 50% of the pulse response vs the baseline condition was considered inhibited. A washout of 10 min by perfusion was performed after the last EFs procedure.
# Lidocaine was first prepared in stock solution using Ethanol (Sigma 459844), Atip was prepared in stock solution using DMSO (Sigma D8418). Image acquisition and data analysis were performed using MetaMorph software (Molecular Devices).
# Neurons with less than 50% of the baseline response to electrical field stimulation were considered inhibited. 300 uM Atip blocked activity in 100% of the cells; 100 uM Atip achieved a 62% blockade.
# sensory axons = experiment: Sensory CAP recordings with IV-administered Atip after Dex; format: in vivo, rats; conditions: doses indicated for use as α-2 AR antagonist
# [5] = system: wild type, α2AAR knockout and α2CAR knock out mice; experiment: Paw withdrawal in response to strong pinch after subcutaneous plantar injection; format: in vivo; conditions: 5 mM subcutaneously in right plantar paw
# Experimental: Studies testing the effect of Atip were also conducted in α2 receptor subunit knock-out mice. α2AAR knockout and α2CAR knock out mice were used in the study. Animals were injected with 5 mM Atip subcutaneously in their right plantar paw, and vehicle into the left plantar paw. They then received strong pinch to the paw skin and pads on each foot. Right and left paw withdrawal in response to the pinch was assessed.
# T1 sequence (P06276 29-602): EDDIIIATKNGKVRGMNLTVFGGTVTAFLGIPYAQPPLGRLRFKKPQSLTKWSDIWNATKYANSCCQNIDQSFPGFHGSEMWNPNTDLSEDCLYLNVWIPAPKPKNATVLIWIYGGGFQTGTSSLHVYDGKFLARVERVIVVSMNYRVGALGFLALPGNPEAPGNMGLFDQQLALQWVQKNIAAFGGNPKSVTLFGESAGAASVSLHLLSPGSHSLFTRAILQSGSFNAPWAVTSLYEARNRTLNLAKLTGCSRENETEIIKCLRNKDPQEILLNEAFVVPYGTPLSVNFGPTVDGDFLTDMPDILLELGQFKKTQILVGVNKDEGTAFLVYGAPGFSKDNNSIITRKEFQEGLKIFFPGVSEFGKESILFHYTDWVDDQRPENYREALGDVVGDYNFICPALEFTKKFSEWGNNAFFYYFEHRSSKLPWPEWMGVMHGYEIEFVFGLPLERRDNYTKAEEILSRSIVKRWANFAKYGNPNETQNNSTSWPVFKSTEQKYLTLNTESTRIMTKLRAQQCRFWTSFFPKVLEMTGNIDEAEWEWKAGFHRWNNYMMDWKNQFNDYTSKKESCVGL
smiles,measurement,setting,value
CCN(CC)CCOC(=O)c1ccc(N)cc1Cl [2-chloroprocaine],"rate of hydrolysis at the ester linkage, relative",pseudocholinesterase,about four times faster than procaine
"CCC1(c2cnc[nH]2)Cc2ccccc2C1 [Atip, 4(5)-(2,3-dihydro-2-ethyl-1H-inden-2-yl)imidazole]",toxicity (fraction of viable cells compared to growth media alone) versus 0.5% proparacaine,hTCEpi cells,reduced toxicity
same,action potentials induced by depolarizing current,[1],rapidly blocked
same,resting membrane potential,[1],does not alter the resting membrane potential
same,conduction in motor axons,[2],relative sparing of conduction
same,"EMG of CTMR, nociceptor sensory conduction",small sensory axons,blocks activity in small sensory axons
same,nerve toxicity (return of EMG),small sensory axons; not washed out,does not poison the nerve
same,reversibility of conduction block (CAP peak and area),"[3]; 100 ul Atip undiluted clinical dose 5 mg/ml topically over the nerve, then wash-out",reversible
same,conduction in large and small sensory axons,"[3]; Atip applied to the nerve, FIGS. 2A-3B together",strongly blocks conduction
same,cells with blocked activity (less than 50% of baseline response to electrical field stimulation),[4]; 100 uM,62%
same,cells with blocked activity (less than 50% of baseline response to electrical field stimulation),[4]; 300 uM,100%
same,sensory conduction block by IV-administered Atip,sensory axons,does not itself block conduction
same,withdrawal of the Atip-injected right paw on pinch,[5]; wild type mice,no withdrawal of the right paw
same,withdrawal of the Atip-injected right paw on pinch,[5]; α2AAR knockout mice,no withdrawal of the right paw
same,withdrawal of the Atip-injected right paw on pinch,[5]; α2CAR knock out mice,no withdrawal of the right paw
"CCN(CC)CC(=O)Nc1c(C)cccc1C [lidocaine, Lidocaine]",efficacy of blockade compared with Atip,"[4]; 200 uM, therapeutic concentration","less efficacious than the highest tested concentration of Atip, and similar to the lowest concentration of Atip tested"
CCN(CC)CCOC(=O)c1ccc(N)cc1 [procaine],"rate of hydrolysis at the ester linkage, relative",pseudocholinesterase,about four times faster than tetracaine
